According to patent publication US8147838B2, “Peptide” (priority 2005, dated 2012):
No end group written: not given here.

Legend:
[1] = molecular target: MHC class I allele A*0201 (A2) (Homo sapiens, UniProt P04439, D140Y/D185E/D98H/E176V/E277Q/G131W/G231S/I119V/I121R/I166T/I218V/L300P/L318F/N151K/N90K/P208A/P217A/Q86G/Q94H/R138H/R169H/T345S); assay: iScore multi-parametric analysis, A*0201; assay type: binding; conditions: level of binding: >0.5, 0.25-0.5, <0.25
Description: (§1) Finally, multiparametric analysis is performed on the results from these assays and an iScore is generated. The iScore represents a measure of the overall quality of peptide-MHC binding, enabling candidate peptides to be ranked in order of binding quality and allowing rational prioritisation of peptides for functional cellular follow-up studies.
(§2) As part of the validation of the iTopia system, a panel of overlapping peptides derived from the CMV pp 65 protein were used and their binding properties for the A*0201 allele analysed. A number of T cell epitopes restricted by HLA A*0201 had already been identified (by more conventional methodologies) by other researchers for this protein. In the iTopia study, it was reported that an iScore of: >0.5 represented “good quality binding”; between 0.25 and 0.5 represented “medium quality binding”; and <0.25 represented “poor quality binding”. Six of the 20 peptides which gave a “good” iScore (>0.5) for A*0201, represented previously characterised CMV pp 65 A*0201 epitopes.
(§3) Each MHC class I allele has different binding properties and affinities for peptides which they bind. Therefore, information obtained with HLA A*0201 in which peptides are ranked as good, medium or poor binders using >0.5, 0.25-0.5 and <0.25 as thresholds is not necessarily transferable between alleles. Also, different proteins are likely to have distinct immunogenic profiles and the affinities between peptides and MHC class I molecules will be different between proteins. This may be particularly relevant in the case of self-antigens where immunogenicity is likely to be lower than in foreign proteins.
(§4) Multi-parametric analysis permits the integration of half-life and ED50 parameters in an integrated iScore. This reflects the capability of a peptide to reconstitute with MHC molecules in a stable complex, defining its overall level of binding i.e. the iScore value represents the overall quality of peptide-MHC binding and is used to rank candidate peptides as an indicator of functional relevance. The lead candidate epitopes for each allele are selected for cellular functional analysis to confirm their biological relevance.
(§5) The changes in gradient of the graphs in FIGS. 7 to 10 are indicated by a line which delineates the populations of iScores forming the basis of discrimination for further functional studies.

[2] = molecular target: MHC class I allele B*0702 (B7) (Homo sapiens, UniProt P01889); assay: iScore multi-parametric analysis, B*0702; conditions: level of binding: >0.5, 0.25-0.5, <0.25
Description: as §1
As part of the validation of the iTopia system, a panel of overlapping peptides derived from the CMV pp 65 protein were used and their binding properties for the A*0201 allele analysed. A number of T cell epitopes restricted by HLA A*0201 had already been identified (by more conventional methodologies) by other researchers for this protein. In the iTopia study, it was reported that an iScore of: >0.5 represented “good quality binding”; between 0.25 and 0.5 represented “medium quality binding”; and <0.25 represented “poor quality binding”.
as §4

[3] = molecular target: MHC class I allele A*0101 (A1) (Homo sapiens, UniProt P04439, A114D/A174V/A182V/D101N/D185E/E176A/E190D/L180R/Q94H/R68K/S129P/T187R/V100A/V91M/W191G); assay: iScore multi-parametric analysis, A*0101; assay type: binding; conditions: for iScore, MHC Class I Molecule A*0101: level of binding: >0.5, 0.25-0.5, <0.25
Description: as §1, §2, §3, §4, §5

[4] = molecular target: MHC class I allele A*0301 (A3) (Homo sapiens, UniProt P04439); assay: iScore multi-parametric analysis, A*0301; assay type: binding; conditions: for iScore, MHC Class I Molecule A*0301: level of binding: >0.5, 0.25-0.5, <0.25
Description: as §1, §2, §3, §4, §5

| Compound | iScore, MHC Class I Molecule A*0201 [1] | iScore, MHC Class I Molecule B*0702 [2] | iScore, MHC Class I Molecule A*0101 [3] | iScore, MHC Class I Molecule A*0301 [4] | iScore (iTopia), A*0101 ([3]; integrates half-life and ED50) | iScore (iTopia), A*0301 ([4]; integrates half-life and ED50) |
| --- | --- | --- | --- | --- | --- | --- |
| EVVQGKDRL [Peptide 157] | 0.139 | 0 | 0 | 0 | – | – |
| LYLPRDVLA [Peptide 112] | 0.218 | 0 | 0 | 0 | – | – |
| ADLSPFAFS [Peptide 78] | 0.116 | 0 | 0 | 0 | – | – |
| AQLPSLRHL [Peptide 116] | 0.162 | 0 | 0 | 0 | – | – |
| YVSFRNLTH [Peptide 126] | 0 | 0.21 | 0 | 0.086 | – | – |
| QNRSFEGMV [Peptide 96] | 0.052 | 0 | 0 | 0 | – | – |
| RGPAAGDGR [Peptide 4] | 0.032 | 0 | 0 | 0 | – | – |
| VRAGAFEHL [Peptide 67] | 0 | 0.085 | 0 | 0 | – | – |
| LELASNHFL [Peptide 108] | 0.151 | 0 | 0 | 0 | – | – |
| RLDEVRAGA [Peptide 65] | 0.422 | 0.032 | 0 | 0.057 | – | – |
| FSSSAPFLA [Peptide 21] | 0.116 | 0 | 0.023 | 0 | – | – |
| SLQTSYVFL [Peptide 176] | 0.561 | 0 | 0 | 0 | – | – |
| LAELAALNL [Peptide 59] | 0.72 | 0.074 | 0 | 0 | – | – |
| FEGMVVAAL [Peptide 98, FEGMVVAAL] | 0.051 | 0 | 0 | 0 | – | – |
| NQLAVLPAG [Peptide 51] | 0.22 | 0 | 0 | 0 | – | – |
| SPLVELILN [Peptide 87] | 0.094 | 0 | 0 | 0 | – | – |
| PPLAELAAL [Peptide 58, PPLAELAAL] | 0.075 | 0.145 | 0 | 0 | – | – |
| SSFSSSAPF [Peptide 20] | 0.037 | 0 | 0 | 0 | – | – |
| HMADMVTWL [Peptide 151] | 0.821 | 0 | 0 | 0 | – | – |
| HMEGYHYRY [Peptide 198] | 0.24 | 0 | 0.357 | 0.189 | 0.357 | 0.189 |
| HFLYLPRDV [Peptide 111] | 0.227 | 0 | 0 | 0 | – | – |
| CC[C@H](C)[C@H](NC(=O)[C@H](C)NC(=O)CNC(=O)[C@@H](NC(=O)[C@@H](N)CC(C)C)[C@@H](C)CC)C(=O)N[C@@H](Cc1ccccc1)C(=O)N[C@@H](CC(C)C)C(=O)N[C@@H](CC(C)C)C(=O)N[C@H](C(=O)O)C(C)C [Peptide 183] | 1.897 | 0 | 0 | 0.07 | – | – |
| LSGSRLDEV [Peptide 63] | 0.075 | 0.107 | 0 | 0 | – | – |
| SLRHLDLSN [Peptide 118] | 0.03 | 0 | 0 | 0 | – | – |
| VLAQLPSLR [Peptide 115] | 0.113 | 0 | 0 | 0.023 | – | – |
| YPEKMRNRV [Peptide 163] | 0 | 0.242 | 0 | 0 | – | – |
| VLLELNSAD [Peptide 167] | 0.105 | 0 | 0 | 0 | – | – |
| LQGLRRLEL [Peptide 105] | 0.114 | 0.119 | 0 | 0 | – | – |
